Common to all, as to type: physicochemical
A short description of series [1]: pKa of the drug substance freebase. From the text:
(§1) The drug substance freebase is a weakly basic compound with a pKa of approximately 5.3. The aqueous solubility of the freebase is pH dependent. […] To enhance the absorption and bioavailability, a tartrate salt (Compound A-TA) was made to enhance the dissolution of the molecule in compositions intended for oral administration.

The nature of series [2]: Aqueous solubility.
Excerpt: Therefore, the L-(+)-tartrate salt of Compound A, referred to hereinafter as Compound A L-(+)-tartrate, or Compound A-TA, is especially suited for development and is used in many of the compositions and methods herein.
as §1

A short description of series [3]: Storage stability of encapsulated Compound A-TA in HDPE bottle with deoxidizer. Conditions: opaque HDPE bottle, LDPE cap, deoxidizer (PharmaKeep CD20).
Series [4] in a line: Chemical and polymorphic stability of solid forms.

A word on the pKa: it is the pH at which an ionisable group is half protonated.

The structures appear in SMILES notation.

Compound `C=CC(=O)Nc1cccc(Oc2nc(Nc3ccc(N(C)[C@H]4CCN(C(C)=O)C4)cc3)ncc2OC)c1` [Compound A, (S)—N-(3-(2-(4-((1-acetylpyrrolidin-3-yl)(methyl)amino)phenylamino)-5-methoxypyrimidin-4-yloxy)phenyl)acrylamide] gave a pKa in series [1] of roughly 5.3. For the same compound, in series [2], the water solubility entry is recorded as “low water solubility” and the “aqueous solubility at higher pH” value was “nearly insoluble”. Moreover, in series [2] (listed as freebase), the “aqueous solubility at higher pH” value is reported as “almost insoluble”. In addition, in series [2] (lower pH), the “aqueous solubility at lower pH” value was “increases dramatically”.

On to `C=CC(=O)Nc1cccc(Oc2nc(Nc3ccc(N(C)[C@H]4CCN(C(C)=O)C4)cc3)ncc2OC)c1.O=C(O)C(O)C(O)C(=O)O` [Compound A-TA, (S)—N-(3-((2-((4-((1-acetylpyrrolidin-3-yl)(methyl)amino)phenyl)amino)-5-methoxypyrimidin-4-yl)oxy)phenyl)acrylamide L-(+)-tartrate dihydrate], for which, in series [3] (up to 6 months), the “storage stability at 40° C. and 75% relative humidity” value is recorded as “highly stable”. In addition, the “storage stability at 25° C. and 60% relative humidity” value in series [3] (up to 24 months) was “highly stable”. Further, the “chemical and polymorphic stability” value in series [4] is “high chemical and polymorphic stability”.
